This is an account of results in patent publication US20260224632A1, “USE OF A COMPOSITION COMPRISING A NEO-SYNTHESIZED EXTRACELLLAR MATRIX FOR THE TREATMENT OF CANCER, IN PARTICULAR FOR THE INHIBITION OF CANCER VIABILITY, MIGRATION, AND PROLIFERATION” (NOVADIP BIOSCIENCES, priority 2023, published 2026).

Series [1] has as its system human bone marrow mesenchymal stem cells (hBM-MSCs). The series can be described thus: CCK-8 viability assay. In kind it is cell-based. The note with it: hBM-MSCs (non-tumor); 72 h; NVDM2 7 and 15 mg per well; doxorubicin 0.1 uM. As for the experimental part:
(§1) Doxorubicin (0.1 uM) was used as a positive control treatment and gelatin beads alone were used for comparison with NVDM2 treatment. All treatments were carried out in 96-well plates in transwells. The compositions of the invention (NVDM2) were administered in two different doses: 7 mg and 15 mg per well. The viability was measured using CCK-8 viability bioassay at 72 hours after administration. […] Data represent the mean±s.d. values of % cell viability upon treatment normalized to the respective untreated sample. Blue line represents 100% of viability. Statistical significances between treated vs untreated samples at the respective time point were tested by ANOVA-I. *, p≤0.05; **; p≤0.01, ***; p≤0.001; ns, not significant. Blue dots: values of individual batches (biological replicates). Each chart represents the average value of the data from all batches tested. DS: lyophilized non irradiated powder of NVDM2; DP: lyophilized powder of NVDM2 after irradiation.
(§2) For this assay the Cell Counting Kit-8 Kit was used (Sigma-Aldrich). […] This coloured product (formazan) is measured using a spectrophotometer. […]
(§3) After O/N incubation, the medium was removed, and the cells were incubated for 72 h in the presence of the different doses of the test item. […] The plate was incubated at 37° C. for 2 hour and then absorbance at 450 nm was measured.
Background: Formazan colour is commonly taken as a measure of viable cells.

For series [2], the system named is adult human dermal fibroblasts (HDFa). The series can be described thus: CCK-8 viability assay. It counts as cell-based. The following applies: HDFa (non-tumor); 72 h; NVDM2 7 and 15 mg per well; doxorubicin 0.1 uM. As to the method: as §1, §2, §3

Turning to `COc1cccc2c1C(=O)c1c(O)c3c(c(O)c1C2=O)C[C@@](O)(C(=O)CO)C[C@@H]3O[C@H]1C[C@H](N)[C@H](O)[C@H](C)O1` [doxorubicin, Doxorubicin], the “% cell viability normalized to untreated (CCK-8)” value in series [1] and in series [2] was “significant inhibitory impact” throughout.
